Test results taken from patent US9452992B2 (priority 2011, dated 2016).
“Also recorded” adds a separate entry of the source.

Key:
[1] = tested on: VSV particles pseudotyped with VSV G; format: cell-based, vesicular stomatitis virus
[2] = tested on: thermolysin-cleaved VSV EboV GP particles; format: cell-based, Ebola virus Zaire
HeLa cells = format: cell-based, human
EBOV Zaire-1995 = format: cell-based, Ebola virus Zaire; conditions: 96 h
[3] = tested on: VSV particles pseudotyped with EboV Zaire GP; format: cell-based, Ebola virus Zaire
[4] = target: binding of cleaved EboV GPΔTM to NPC1 membranes (Mus musculus, UniProt O35604)
Chain of binding of cleaved EboV GPΔTM to NPC1 membranes (O35604 23-1277 limits assumed, stated change not applied): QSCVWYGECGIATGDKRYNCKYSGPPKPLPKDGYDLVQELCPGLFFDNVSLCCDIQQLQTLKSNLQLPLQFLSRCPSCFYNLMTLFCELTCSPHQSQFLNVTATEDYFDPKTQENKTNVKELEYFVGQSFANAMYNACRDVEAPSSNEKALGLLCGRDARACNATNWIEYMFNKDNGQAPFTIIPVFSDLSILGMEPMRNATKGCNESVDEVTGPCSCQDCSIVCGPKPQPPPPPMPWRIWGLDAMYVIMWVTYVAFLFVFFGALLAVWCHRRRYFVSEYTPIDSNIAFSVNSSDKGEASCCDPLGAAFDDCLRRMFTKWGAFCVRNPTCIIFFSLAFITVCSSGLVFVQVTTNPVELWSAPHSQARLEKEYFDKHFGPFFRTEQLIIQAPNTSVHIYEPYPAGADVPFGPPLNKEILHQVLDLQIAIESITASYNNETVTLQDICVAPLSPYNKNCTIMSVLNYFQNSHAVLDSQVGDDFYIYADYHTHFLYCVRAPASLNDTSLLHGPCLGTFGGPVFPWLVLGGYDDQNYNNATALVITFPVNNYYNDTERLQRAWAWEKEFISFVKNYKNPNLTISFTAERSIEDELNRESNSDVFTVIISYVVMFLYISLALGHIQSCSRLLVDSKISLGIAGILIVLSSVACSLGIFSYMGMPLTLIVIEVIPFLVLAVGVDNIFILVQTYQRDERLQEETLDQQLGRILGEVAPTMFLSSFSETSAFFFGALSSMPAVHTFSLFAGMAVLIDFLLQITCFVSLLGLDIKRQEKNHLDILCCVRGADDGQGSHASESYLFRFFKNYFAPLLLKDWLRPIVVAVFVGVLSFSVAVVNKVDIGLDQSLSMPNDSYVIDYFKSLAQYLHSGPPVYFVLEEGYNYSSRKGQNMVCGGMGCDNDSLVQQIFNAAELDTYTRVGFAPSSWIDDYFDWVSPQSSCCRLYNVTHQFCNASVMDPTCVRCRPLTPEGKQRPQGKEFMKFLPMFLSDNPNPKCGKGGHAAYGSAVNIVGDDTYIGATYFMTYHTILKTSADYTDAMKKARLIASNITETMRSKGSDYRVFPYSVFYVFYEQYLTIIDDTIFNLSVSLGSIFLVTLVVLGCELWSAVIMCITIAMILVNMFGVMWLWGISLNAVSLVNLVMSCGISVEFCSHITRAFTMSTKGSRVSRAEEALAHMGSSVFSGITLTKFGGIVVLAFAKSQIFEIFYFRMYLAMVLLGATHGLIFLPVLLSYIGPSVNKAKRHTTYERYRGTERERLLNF

cathepsin B = cathepsin B (Homo sapiens, UniProt P07858); format: biochemical
EboV = tested on: EboV; parameters: species or system Ebola virus
[5] = tested on: Ebola virus Zaire-Maying a encoding GFP; format: cell-based
NPC1 = target: T1, NPC1 (Homo sapiens, UniProt O15118); format: binding
T1 construct: expressed in transfected cells; host or cells: CHO/NPC1-1 (CHOhNPC1) cells; 15,000 g membrane pellet
T1 sequence (O15118 23-1278): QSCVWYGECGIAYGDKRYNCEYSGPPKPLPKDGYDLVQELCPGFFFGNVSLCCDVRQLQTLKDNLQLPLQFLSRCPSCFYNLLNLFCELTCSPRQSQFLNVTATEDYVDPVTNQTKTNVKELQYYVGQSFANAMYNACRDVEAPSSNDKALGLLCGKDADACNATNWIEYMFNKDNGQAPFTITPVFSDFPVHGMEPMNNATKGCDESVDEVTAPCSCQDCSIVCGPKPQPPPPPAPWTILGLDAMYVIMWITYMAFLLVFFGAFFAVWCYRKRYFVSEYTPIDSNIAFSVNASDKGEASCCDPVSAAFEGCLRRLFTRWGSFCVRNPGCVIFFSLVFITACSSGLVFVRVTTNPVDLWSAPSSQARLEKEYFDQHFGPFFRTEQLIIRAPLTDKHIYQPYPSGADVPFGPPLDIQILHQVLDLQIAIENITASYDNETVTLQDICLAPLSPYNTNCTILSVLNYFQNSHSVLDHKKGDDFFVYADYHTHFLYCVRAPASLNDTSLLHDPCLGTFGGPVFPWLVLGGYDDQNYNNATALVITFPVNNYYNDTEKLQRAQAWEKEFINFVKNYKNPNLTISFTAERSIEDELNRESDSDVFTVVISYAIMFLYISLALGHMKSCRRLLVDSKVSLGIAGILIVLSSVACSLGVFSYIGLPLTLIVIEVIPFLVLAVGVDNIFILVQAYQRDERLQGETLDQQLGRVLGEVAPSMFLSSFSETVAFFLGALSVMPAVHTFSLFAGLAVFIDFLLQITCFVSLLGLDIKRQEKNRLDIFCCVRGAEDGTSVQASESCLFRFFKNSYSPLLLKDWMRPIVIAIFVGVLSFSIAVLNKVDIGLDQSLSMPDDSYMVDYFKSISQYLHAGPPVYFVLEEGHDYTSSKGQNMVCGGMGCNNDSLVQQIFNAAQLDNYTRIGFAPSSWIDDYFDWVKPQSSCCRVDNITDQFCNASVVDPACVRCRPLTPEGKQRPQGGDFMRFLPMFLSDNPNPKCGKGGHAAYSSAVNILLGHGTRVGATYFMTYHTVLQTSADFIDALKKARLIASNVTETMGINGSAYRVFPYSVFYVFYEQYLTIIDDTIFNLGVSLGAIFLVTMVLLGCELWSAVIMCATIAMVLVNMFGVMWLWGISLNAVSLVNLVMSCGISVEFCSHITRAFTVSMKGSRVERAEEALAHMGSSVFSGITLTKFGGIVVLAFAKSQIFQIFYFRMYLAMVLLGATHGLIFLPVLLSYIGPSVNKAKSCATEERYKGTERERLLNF

SMILES: O=C(CC12CC3CC(CC(C3)C1)C2)NCC(=O)N1CCN(Cc2ccccc2)CC1 [3.0, 2-((3r,5r,7r)-adamantan-1-yl)-N-(2-(4-benzylpiperazin-1-yl)-2-oxoethyl)acetamide]
- inhibition of VSV G-dependent infection of Vero cells [1]: not
- inhibition of infection by thermolysin-treated VSV EboV particles [2]: inhibited infection
- cholesterol uptake from LE/LY into cells (HeLa cells): inhibit cholesterol uptake
- induction of filipin-labelled cytoplasmic vacuoles (HeLa cells): developed cytoplasmic vacuoles
- reduction of EboV growth on Vero cells (EBOV Zaire-1995): > 99%
- inhibition of EboV GP infection in the screen [3]: more than 80%
- inhibition of EboV GP-dependent infection of Vero cells [3]: inhibits infection
- inhibition of binding of cleaved EboV GPΔTM to NPC1 membranes [4]: inhibited binding
- effect on cathepsin B activity (cathepsin B): no effect was observed

SMILES: CCN(CC)CCO[C@H]1CC[C@@]2(C)C(=CC[C@@H]3[C@@H]2CC[C@]2(C)C(=O)CC[C@@H]32)C1 [U18666A, reference compound]
- inhibition of binding of cleaved EboV GPΔTM to NPC1 membranes [4]: does not inhibit binding

SMILES: CCCCc1oc2ccccc2c1C(=O)c1cc(I)c(OCCN(CC)CC)c(I)c1 [amiodarone]
- anti-EboV activity (EboV): weak anti-EboV activity

SMILES: COC(=O)c1ccc(COc2ccccc2CN2CCN(C(=O)CNC(=O)CC34CC5CC(CC(C5)C3)C4)CC2)cc1 [compound 3.48, methyl 4-((2-((4-(2-(2-((3r,5r,7r)-adamantan-1-yl)acetamido)acetyl)piperazin-1-yl)methyl)phenoxy)methyl)benzoate]
- inhibition of infection by thermolysin-treated VSV EboV particles [2]: inhibited infection
- cholesterol uptake from LE/LY into cells (HeLa cells): inhibit cholesterol uptake
- induction of filipin-labelled cytoplasmic vacuoles (HeLa cells): developed cytoplasmic vacuoles
- efficacy as measured by growth of EboV on Vero cells, relative to 3.0 [5]: increased
- potency as measured by a single cycle of EboV GP-dependent infection, relative to 3.0 [3]: increased the potency
- inhibition of binding of cleaved EboV GPΔTM to NPC1 membranes [4]: blocked; also recorded: inhibited binding
- effect on cathepsin B activity (cathepsin B): no effect was observed
- inhibition of cross-linking of 3.105 to NPC1 (NPC1): inhibited

SMILES: C#Cc1ccc(COc2ccc(N=[N+]=[N-])cc2CN2CCN(C(=O)CNC(=O)CC34CC5CC(CC(C5)C3)C4)CC2)cc1 [compound 3.105, 2-((3r,5r,7r)-adamantan-1-yl)-N-(2-(4-(5-azido-2-((4-ethynylbenzyl)oxy)benzyl)piperazin-1-yl)-2-oxoethyl)acetamide]
- inhibition of EboV GP-dependent infection of Vero cells [3]: has anti-EboV activity
- cross-linking to NPC1 (NPC1): cross-linked

SMILES: COc1ccc([C@@H]2Sc3ccccc3N(CCN(C)C)C(=O)[C@@H]2OC(C)=O)cc1 [diltiazen]
- anti-EboV activity (EboV): weak anti-EboV activity

SMILES: CC/C(=C(\c1ccccc1)c1ccc(OCCN(C)C)cc1)c1ccccc1 [tamoxifen]
- anti-EboV activity (EboV): weak anti-EboV activity
